Data taken from patent US20070264355A1, “BINARY COMPOSITIONS AND METHODS FOR STERILIZATION” (Binary, LLC, priority 2005, published 2007).
“And” between values parts separate entries of the source, which are not always exact repeats. Equal entries are not always repeated.

Tested on: Staphylococcus aureus (ATCC 6538)
Assay: Microbicidal activity against Staphylococcus aureus (suspension test, surviving CFU)
Assay type: cell-based
Procedure: Bacterial suspensions, specifically Staphylococcus aureus (ATCC 6538) in this example, were prepared by the shake flask method to achieve late log to early stationary phase growth. Bacteria were grown 24 hours in trypticase soy broth (TSB) at 35° C. The cultures were centrifuged at 4,000 rpm for 10 minutes and the supernatants removed. The pellet was collected and washed twice with sterile 0.9% normal saline. The washed microorganisms were suspended and diluted with normal saline to a 3 McFarland standard, i.e., approximately 10^9 bacteria colony forming units (CFU) per ml. Actual colony counts are confirmed by serial dilutions (10^−1 to 10^−5 or 10^−6) plated on trypticase soy agar (TSA) and incubated overnight at 35° C. One hundred microliters of organisms from a stock of 10^7 CFU/ml were used to obtain an approximate final working target inoculum of 10^6 CFU. The microbicidal test is conducted in a vial containing 1.4 ml of final reaction mixture after neutralization.
Each solution was used alone for the individual controls. Organism suspensions were used to achieve a final target concentration of 2-3×10^6 CFU per ml. For the binary system treatments, sodium hypochlorite solution and hydrogen peroxide solution, non-acidified or acidified, were sequentially added to the microorganisms. Acidified hydrogen peroxide solution was obtained by the addition of 1.0% v/v of 0.001 N hydrochloride solution. After each addition, the resulting mixture was allowed to remain in contact with the organisms for a set amount of time at room temperature (about 22° C.), as listed in the Tables 1 and 2. At the end of the treatment time, the mixtures were neutralized with 200 to 500 microliters of thiosulfate solution (2.4%) to quench the activity of sodium hypochlorite and then treated with 100 to 200 microliters of a 1% catalase solution, containing a minimum of 100 units/ul, to quench the hydrogen peroxide activity. If needed, an appropriate volume of sterile saline was added to bring the final volume of reaction mixture to 1.4 ml after neutralization. Serial dilution plate counts were performed from the contents of each vial in sterile saline and inoculated onto TSA for quantitative culture. Plates were then incubated at 37° C. and counts taken at 24 hours.
After an additional 30 minutes, the binary system mixture was then neutralized using 2.4% thiosulfate followed by 1% catalase as described in the Methods Section.

[1] = NaOCl 0.02 mM 15 min, then saline 30 min, inoculum 2530000 CFU
[2] = NaOCl 0.02 mM 15 min, inoculum 2500000 CFU
[3] = NaOCl 0.02 mM 15 min, inoculum 2530000 CFU
[4] = NaOCl 0.03 mM 15 min, then saline 30 min, inoculum 2530000 CFU
[5] = NaOCl 0.03 mM 15 min, inoculum 2500000 CFU
[6] = NaOCl 0.03 mM 15 min, inoculum 2530000 CFU
[7] = NaOCl 0.04 mM 15 min, then saline 30 min, inoculum 2530000 CFU
[8] = NaOCl 0.04 mM 15 min, inoculum 2500000 CFU
[9] = NaOCl 0.04 mM 15 min, inoculum 2530000 CFU
[10] = NaOCl 0.05 mM 15 min, then saline 30 min, inoculum 2530000 CFU
[11] = NaOCl 0.05 mM 15 min, inoculum 2530000 CFU
[12] = NaOCl 0.06 mM 15 min, then saline 30 min, inoculum 2530000 CFU
[13] = NaOCl 0.06 mM 15 min, inoculum 2530000 CFU
[14] = NaOCl 0.07 mM 5 min, inoculum 1600000 CFU
[15] = NaOCl 0.07 mM 15 min, then saline 30 min, inoculum 2530000 CFU
[16] = NaOCl 0.07 mM 15 min, inoculum 1600000 CFU
[17] = NaOCl 0.07 mM 15 min, inoculum 2530000 CFU
[18] = NaOCl 0.07 mM 30 min, inoculum 1600000 CFU
[19] = NaOCl 0.71 mM 5 min, inoculum 1600000 CFU
[20] = NaOCl 0.71 mM 15 min, inoculum 1600000 CFU
[21] = NaOCl 0.71 mM 30 min, inoculum 1600000 CFU
[22] = NaOCl 7.05 mM 5 min, inoculum 1600000 CFU
[23] = NaOCl 7.05 mM 15 min, inoculum 1600000 CFU
[24] = NaOCl 7.05 mM 30 min, inoculum 1600000 CFU
[25] = NaOCl 70.53 mM 5 min, inoculum 1600000 CFU
[26] = NaOCl 70.53 mM 15 min, inoculum 1600000 CFU
[27] = NaOCl 70.53 mM 30 min, inoculum 1600000 CFU
[28] = NaOCl 705.27 mM 5 min, inoculum 1600000 CFU
[29] = NaOCl 705.27 mM 15 min, inoculum 1600000 CFU
[30] = NaOCl 705.27 mM 30 min, inoculum 1600000 CFU

For `[Na+].[O-]Cl` [NaOCl, sodium hypochlorite], which “Log 10 (CFU + 1) Survivors” value [1] is on record?
The value was 3.0.

What about the “Log Reduction” value [1] of the same molecule?
The value was 3.4.

What about the “Total Viability (CFU)” value [1] of the same molecule?
The value was 1092 CFU.

And the “Log 10 (CFU + 1) Survivors” value [2]?
The value was 6.3.

And the “Log Reduction” value [2]?
Its value is 0.1 and 0.12.

And the “Total Viability (CFU)” value [2]?
Its value is 1890000 CFU.

And the “Log 10 (CFU + 1) Survivors” value [3]?
The value was 3.1.

And the “Log Reduction” value [3]?
Its value is 3.3 and 3.29.

And the “Total Viability (CFU)” value [3]?
The value was 1288 CFU.

And the “Log 10 (CFU + 1) Survivors” value [4]?
Its value is 2.4.

What about the “Log Reduction” value [4] of the same molecule?
Its value is 4.0.

What about the “Total Viability (CFU)” value [4] of the same molecule?
Its value is 260 CFU.

What about the “Log 10 (CFU + 1) Survivors” value [5] of the same molecule?
Its value is 4.9.

What about the “Log Reduction” value [5] of the same molecule?
Its value is 1.5 and 1.53.

And the “Total Viability (CFU)” value [5]?
Its value is 74200 CFU.

And the “Log 10 (CFU + 1) Survivors” value [6]?
Its value is 2.9.

What about the “Log Reduction” value [6] of the same molecule?
The value was 3.5 and 3.51.

What about the “Total Viability (CFU)” value [6] of the same molecule?
The value was 784 CFU.

What about the “Log 10 (CFU + 1) Survivors” value [7] of the same molecule?
The value was 1.3.

What about the “Log Reduction” value [7] of the same molecule?
The value was 5.1.

And the “Total Viability (CFU)” value [7]?
Its value is 18 CFU.

What about the “Log 10 (CFU + 1) Survivors” value [8] of the same molecule?
Its value is 2.8.

What about the “Log Reduction” value [8] of the same molecule?
The value was 3.6 and 3.61.

What about the “Total Viability (CFU)” value [8] of the same molecule?
The value was 616 CFU.

And the “Log 10 (CFU + 1) Survivors” value [9]?
Its value is 2.2.

What about the “Log Reduction” value [9] of the same molecule?
The value was 4.2 and 4.18.

What about the “Total Viability (CFU)” value [9] of the same molecule?
The value was 167 CFU.

What about the “Log 10 (CFU + 1) Survivors” value [10] of the same molecule?
Its value is 1.1.

And the “Log Reduction” value [10]?
The value was 5.3.

And the “Total Viability (CFU)” value [10]?
Its value is 13 CFU.

And the “Log 10 (CFU + 1) Survivors” value [11]?
Its value is 1.3.

And the “Log Reduction” value [11]?
Its value is 5.1 and 5.15.

What about the “Total Viability (CFU)” value [11] of the same molecule?
Its value is 17 CFU.

And the “Log 10 (CFU + 1) Survivors” value [12]?
The value was 0.9.

And the “Log Reduction” value [12]?
Its value is 5.5.

And the “Total Viability (CFU)” value [12]?
The value was 7 CFU.

What about the “Log 10 (CFU + 1) Survivors” value [13] of the same molecule?
The value was 0.0.

What about the “Log Reduction” value [13] of the same molecule?
Its value is 6.4.

What about the “Total Viability (CFU)” value [13] of the same molecule?
The value was 0 CFU.

And the “Log 10 (CFU + 1) Survivors” value [14]?
The value was 0.7.

And the “Log Reduction” value [14]?
Its value is 5.5.

And the “Total Viability (CFU)” value [14]?
Its value is 4 CFU.

What about the “Total Viability (CFU)” value (NaOCl 0.07 mM 5 min, inoculum 1600000 CFU, listed as sodium hypochlorite) of the same molecule?
The value was “four”.

What about the “Log 10 (CFU + 1) Survivors” value [15] of the same molecule?
Its value is 0.0.

What about the “Log Reduction” value [15] of the same molecule?
Its value is 6.4.

And the “Total Viability (CFU)” value [15]?
Its value is 0 CFU.

What about the “Log 10 (CFU + 1) Survivors” value [16] of the same molecule?
The value was 0.9.

And the “Log Reduction” value [16]?
Its value is 5.3.

What about the “Total Viability (CFU)” value [16] of the same molecule?
The value was 7 CFU.

What about the “Total Viability (CFU)” value (NaOCl 0.07 mM 15 min, inoculum 1600000 CFU, listed as sodium hypochlorite) of the same molecule?
Its value is “seven”.

And the “Log 10 (CFU + 1) Survivors” value [17]?
Its value is 0.0.

What about the “Log Reduction” value [17] of the same molecule?
Its value is 6.4.

And the “Total Viability (CFU)” value [17]?
Its value is 0 CFU.

And the “Log 10 (CFU + 1) Survivors” value [18]?
The value was 0.0.

And the “Log Reduction” value [18]?
The value was 6.2.

What about the “Total Viability (CFU)” value [18] of the same molecule?
Its value is 0 CFU.

And the “Log 10 (CFU + 1) Survivors” value [19]?
The value was 0.0.

What about the “Log Reduction” value [19] of the same molecule?
The value was 6.2.

And the “Total Viability (CFU)” value [19]?
Its value is 0 CFU.

What about the “Log 10 (CFU + 1) Survivors” value [20] of the same molecule?
Its value is 0.0.

And the “Log Reduction” value [20]?
The value was 6.2.

What about the “Total Viability (CFU)” value [20] of the same molecule?
Its value is 0 CFU.

What about the “Log 10 (CFU + 1) Survivors” value [21] of the same molecule?
The value was 0.0.

And the “Log Reduction” value [21]?
The value was 6.2.

And the “Total Viability (CFU)” value [21]?
Its value is 0 CFU.

And the “Log 10 (CFU + 1) Survivors” value [22]?
Its value is 0.0.

And the “Log Reduction” value [22]?
The value was 6.2.

And the “Total Viability (CFU)” value [22]?
Its value is 0 CFU.

What about the “Log 10 (CFU + 1) Survivors” value [23] of the same molecule?
The value was 0.0.

What about the “Log Reduction” value [23] of the same molecule?
The value was 6.2.

What about the “Total Viability (CFU)” value [23] of the same molecule?
The value was 0 CFU.

What about the “Log 10 (CFU + 1) Survivors” value [24] of the same molecule?
Its value is 0.0.

And the “Log Reduction” value [24]?
The value was 6.2.

And the “Total Viability (CFU)” value [24]?
Its value is 0 CFU.

What about the “Log 10 (CFU + 1) Survivors” value [25] of the same molecule?
Its value is 0.0.

What about the “Log Reduction” value [25] of the same molecule?
Its value is 6.2.

And the “Total Viability (CFU)” value [25]?
Its value is 0 CFU.

And the “Log 10 (CFU + 1) Survivors” value [26]?
The value was 0.0.

What about the “Log Reduction” value [26] of the same molecule?
Its value is 6.2.

And the “Total Viability (CFU)” value [26]?
The value was 0 CFU.

And the “Log 10 (CFU + 1) Survivors” value [27]?
The value was 0.0.

What about the “Log Reduction” value [27] of the same molecule?
The value was 6.2.

What about the “Total Viability (CFU)” value [27] of the same molecule?
The value was 0 CFU.

What about the “Log 10 (CFU + 1) Survivors” value [28] of the same molecule?
The value was 0.0.

What about the “Log Reduction” value [28] of the same molecule?
Its value is 6.2.

What about the “Total Viability (CFU)” value [28] of the same molecule?
Its value is 0 CFU.

What about the “Log 10 (CFU + 1) Survivors” value [29] of the same molecule?
Its value is 0.0.

And the “Log Reduction” value [29]?
Its value is 6.2.

What about the “Total Viability (CFU)” value [29] of the same molecule?
Its value is 0 CFU.

What about the “Log 10 (CFU + 1) Survivors” value [30] of the same molecule?
The value was 0.0.

And the “Log Reduction” value [30]?
Its value is 6.2.

What about the “Total Viability (CFU)” value [30] of the same molecule?
Its value is 0 CFU.
